Values quoted from earlier work, collected in patent publication US12565499B2, “Compounds and methods” (INTRA-CELLULAR THERAPIES, INC., priority 2012, dated 2026).

Test system: mice
Settings: chronic administration; Berton et al., Science (2006) 311:864-868

## CNCCC(Oc1ccc(C(F)(F)F)cc1)c1ccccc1 (stereo not shown) [fluoxetine]
  reversal of isolation behavior in the social defeat/resident intruder model: reversed
